Results from ChEMBL document CHEMBL3407459, “Synthesis and antimicrobial activity of novel structural hybrids of benzofuroxan and benzothiazole derivatives” (2015).

What was measured:
Escherichia coli [1] = assay: Antibacterial activity against Escherichia coli MG1655 harboring pColD-lux assessed as maximum induction factor at 10^-11 M after 120 mins by luminometric analysis; format: functional, K-12 substr. MG1655
Escherichia coli [2] = assay: Antibacterial activity against Escherichia coli MG1655 harboring pIbpA-lux assessed as maximum induction factor at 10^-11 M after 120 mins by luminometric analysis; format: functional, K-12 substr. MG1655
Escherichia coli [3] = assay: Antibacterial activity against Escherichia coli MG1655 harboring pSoxS-lux assessed as maximum induction factor at 10^-12 M after 120 mins by luminometric analysis; format: functional, K-12 substr. MG1655
Escherichia coli [4] = assay: Antibacterial activity against Escherichia coli MG1655 harboring pGrpE-lux assessed as maximum induction factor at 10^-13 M after 120 mins by luminometric analysis; format: functional, K-12 substr. MG1655
Escherichia coli [5] = assay: Antibacterial activity against Escherichia coli MG1655 harboring pIbpA-lux assessed as maximum induction factor at 10^-13 M after 120 mins by luminometric analysis; format: functional, K-12 substr. MG1655
Escherichia coli [6] = assay: Antibacterial activity against Escherichia coli MG1655 harboring pColD-lux assessed as maximum induction factor at 10^-14 M after 120 mins by luminometric analysis; format: functional, K-12 substr. MG1655
Escherichia coli [7] = assay: Antibacterial activity against Escherichia coli MG1655 harboring pIbpA-lux assessed as maximum induction factor at 10^-14 M after 120 mins by luminometric analysis; format: functional, K-12 substr. MG1655
Vibrio sp. [8] = assay: Antibacterial activity against Vibrio aqamarinus VKPM B-11245 assessed as toxicity index at 10^-4 M measured for 2 hrs by luminometric analysis; format: functional
Vibrio sp. [9] = assay: Antibacterial activity against Vibrio aqamarinus VKPM B-11245 assessed as toxicity index at 10^-7 M measured for 2 hrs by luminometric analysis; format: functional
Vibrio sp. [10] = assay: Antibacterial activity against Vibrio aqamarinus VKPM B-11245 assessed as toxicity index at 10^-9 M measured for 2 hrs by luminometric analysis; format: functional
Vibrio sp. [11] = assay: Antibacterial activity against Vibrio aqamarinus VKPM B-11245 assessed as toxicity index at 10^-10 M measured for 2 hrs by luminometric analysis; format: functional
Vibrio sp. [12] = assay: Antibacterial activity against Vibrio aqamarinus VKPM B-11245 assessed as toxicity index at 10^-12 M measured for 2 hrs by luminometric analysis; format: functional
Vibrio sp. [13] = assay: Antibacterial activity against Vibrio aqamarinus VKPM B-11245 assessed as toxicity index at 10^-14 M measured for 2 hrs by luminometric analysis; format: functional
Escherichia coli [14] = assay: Antibacterial activity against Escherichia coli MG1655 harboring pXen7 assessed as toxicity index at 10^-6 M measured for 2 hrs by luminometric analysis; format: functional, K-12 substr. MG1655
Escherichia coli [15] = assay: Antibacterial activity against Escherichia coli MG1655 harboring pXen7 assessed as toxicity index at 10^-7 M measured for 2 hrs by luminometric analysis; format: functional, K-12 substr. MG1655
Escherichia coli [16] = assay: Antibacterial activity against Escherichia coli MG1655 harboring pXen7 assessed as toxicity index at 10^-9 M measured for 2 hrs by luminometric analysis; format: functional, K-12 substr. MG1655
Escherichia coli [17] = assay: Antibacterial activity against Escherichia coli MG1655 harboring pRecA-lux assessed as maximum induction factor at 10^-3 M after 120 mins by luminometric analysis; format: functional, K-12 substr. MG1655
Escherichia coli [18] = assay: Antibacterial activity against Escherichia coli MG1655 harboring pIbpA-lux assessed as maximum induction factor at 10^-3 M after 120 mins by luminometric analysis; format: functional, K-12 substr. MG1655
Escherichia coli [19] = assay: Antibacterial activity against Escherichia coli MG1655 harboring pSoxS-lux assessed as maximum induction factor at 10^-4 M after 120 mins by luminometric analysis; format: functional, K-12 substr. MG1655
Escherichia coli [20] = assay: Antibacterial activity against Escherichia coli MG1655 harboring pColD-lux assessed as maximum induction factor at 10^-4 M after 120 mins by luminometric analysis; format: functional, K-12 substr. MG1655
Escherichia coli [21] = assay: Antibacterial activity against Escherichia coli MG1655 harboring pIbpA-lux assessed as maximum induction factor at 10^-4 M after 120 mins by luminometric analysis; format: functional, K-12 substr. MG1655
[22] = Activation of quorum sensing system luxR in Escherichia coli MG1655 harboring assessed as maximum induction factor at 10^-4 M after 120 mins by luminometric analysis; conditions: Escherichia coli str. K-12 substr. MG1655
Escherichia coli [23] = assay: Antibacterial activity against Escherichia coli MG1655 harboring pRecA-lux assessed as maximum induction factor at 10^-5 M after 120 mins by luminometric analysis; format: functional, K-12 substr. MG1655
Escherichia coli [24] = assay: Antibacterial activity against Escherichia coli MG1655 harboring pIbpA-lux assessed as maximum induction factor at 10^-5 M after 120 mins by luminometric analysis; format: functional, K-12 substr. MG1655
[25] = Activation of quorum sensing system luxR in Escherichia coli MG1655 harboring pVFR1-lux assessed as maximum induction factor at 10^-5 M after 120 mins by luminometric analysis; conditions: Escherichia coli str. K-12 substr. MG1655
[26] = Activation of quorum sensing system luxR in Escherichia coli MG1655 harboring pVFR1-lux assessed as maximum induction factor at 10^-6 M after 120 mins by luminometric analysis; conditions: Escherichia coli str. K-12 substr. MG1655
Escherichia coli [27] = assay: Antibacterial activity against Escherichia coli MG1655 harboring pKatG-lux assessed as maximum induction factor at 10^-7 M after 120 mins by luminometric analysis; format: functional, K-12 substr. MG1655
Escherichia coli [28] = assay: Antibacterial activity against Escherichia coli MG1655 harboring pRecA-lux assessed as maximum induction factor at 10^-7 M after 120 mins by luminometric analysis; format: functional, K-12 substr. MG1655
Escherichia coli [29] = assay: Antibacterial activity against Escherichia coli MG1655 harboring pGrpE-lux assessed as maximum induction factor at 10^-7 M after 120 mins by luminometric analysis; format: functional, K-12 substr. MG1655
Escherichia coli [30] = assay: Antibacterial activity against Escherichia coli MG1655 harboring pIbpA-lux assessed as maximum induction factor at 10^-7 M after 120 mins by luminometric analysis; format: functional, K-12 substr. MG1655
Escherichia coli [31] = assay: Antibacterial activity against Escherichia coli MG1655 harboring pRecA-lux assessed as maximum induction factor at 10^-8 M after 120 mins by luminometric analysis; format: functional, K-12 substr. MG1655
Escherichia coli [32] = assay: Antibacterial activity against Escherichia coli MG1655 harboring pColD-lux assessed as maximum induction factor at 10^-8 M after 120 mins by luminometric analysis; format: functional, K-12 substr. MG1655
Escherichia coli [33] = assay: Antibacterial activity against Escherichia coli MG1655 harboring pGrpE-lux assessed as maximum induction factor at 10^-8 M after 120 mins by luminometric analysis; format: functional, K-12 substr. MG1655
Escherichia coli [34] = assay: Antibacterial activity against Escherichia coli MG1655 harboring pRecA-lux assessed as maximum induction factor at 10^-9 M after 120 mins by luminometric analysis; format: functional, K-12 substr. MG1655
Escherichia coli [35] = assay: Antibacterial activity against Escherichia coli MG1655 harboring pIbpA-lux assessed as maximum induction factor at 10^-9 M after 120 mins by luminometric analysis; format: functional, K-12 substr. MG1655
Escherichia coli [36] = assay: Antibacterial activity against Escherichia coli MG1655 harboring pKatG-lux assessed as maximum induction factor at 10^-10 M after 120 mins by luminometric analysis; format: functional, K-12 substr. MG1655
Escherichia coli [37] = assay: Antibacterial activity against Escherichia coli MG1655 harboring pColD-lux assessed as maximum induction factor at 10^-10 M after 120 mins by luminometric analysis; format: functional, K-12 substr. MG1655
Escherichia coli [38] = assay: Antibacterial activity against Escherichia coli MG1655 harboring pGrpE-lux assessed as maximum induction factor at 10^-10 M after 120 mins by luminometric analysis; format: functional, K-12 substr. MG1655
Escherichia coli [39] = assay: Antibacterial activity against Escherichia coli MG1655 harboring pIbpA-lux assessed as maximum induction factor at 10^-10 M after 120 mins by luminometric analysis; format: functional, K-12 substr. MG1655
[40] = Activation of quorum sensing system luxR in Escherichia coli MG1655 harboring pVFR1-lux assessed as maximum induction factor at 10^-10 M after 120 mins by luminometric analysis; conditions: Escherichia coli str. K-12 substr. MG1655

Structure (SMILES): O=[N+]([O-])c1cc([N+](=O)[O-])c2no[n+]([O-])c2c1Sc1nc2ccccc2s1
- Activity (Escherichia coli [1]): 1.07
- Activity (Escherichia coli [2]): 1.47
- Activity (Escherichia coli [3]): 1.41
- Activity (Escherichia coli [4]): 0.96
- Activity (Escherichia coli [5]): 1.37
- Activity (Escherichia coli [6]): 1.07
- Activity (Escherichia coli [7]): 1.46
- Activity (Vibrio sp. [8]): 99.1
- Activity (Vibrio sp. [9]): 22.52
- Activity (Vibrio sp. [10]): 0
- Activity (Vibrio sp. [11]): 11.61
- Activity (Vibrio sp. [12]): 0
- Activity (Vibrio sp. [13]): 5.94
- Activity (Escherichia coli [14]): 10.3
- Activity (Escherichia coli [15]): 0
- Activity (Escherichia coli [16]): 0
- Activity (Escherichia coli [17]): 0.25
- Activity (Escherichia coli [18]): 1.19
- Activity (Escherichia coli [19]): 2.71
- Activity (Escherichia coli [20]): 1.48
- Activity (Escherichia coli [21]): 0.63
- Activity [22]: 0.99
- Activity (Escherichia coli [23]): 0.93
- Activity (Escherichia coli [24]): 1.08
- Activity [25]: 1.64
- Activity [26]: 3.03
- Activity (Escherichia coli [27]): 0.91
- Activity (Escherichia coli [28]): 1.01
- Activity (Escherichia coli [29]): 1.02
- Activity (Escherichia coli [30]): 1.12
- Activity (Escherichia coli [31]): 0.99
- Activity (Escherichia coli [32]): 1.08
- Activity (Escherichia coli [33]): 1.08
- Activity (Escherichia coli [34]): 1.02
- Activity (Escherichia coli [35]): 1.09
- Activity (Escherichia coli [36]): 1.02
- Activity (Escherichia coli [37]): 1.04
- Activity (Escherichia coli [38]): 1.15
- Activity (Escherichia coli [39]): 1.14
- Activity [40]: 3.59
